Here are results for one molecule from US10131693B2, “Bipodal-peptide binder” (GWANGJU INSTITUTE OF SCIENCE AND TECHNOLOGY, priority 2008, dated 2018).

The target of the experiment is T1, fibronectin ED-B (Homo sapiens, UniProt P02751).
T1 construct: After transformation of pET28b vector carrying fibronectin ED-B into BL21 cells; His-tag (N); made in house; host or cells: E. coli BL21 (pET28b)
Description: SPR (Biacore) affinity measurement to fibronectin ED-B. Format: binding. On the procedure:
Bipodal-peptide binder peptides specific to ED-B, VEGF or nAchR which were repetitively found in DNA sequencing were synthesized from Anigen Inc. (Korea). Affinity was measured using BlAcore X instrument (Biacore AB, Uppsala, Sweden). ED-B and nAchR were immobilized on streptavidin (SA) chip (Biacore) by injecting 2,000 RU biotinylated-EDB. VEGF was immobilized on CM5 chip (Biacore) using EDC/NHS. PBS (pH 7.4) was used as a running buffer. […].
. In addition to tryptophan zipper, GB1m3 and HP7 peptide as a type of other β-hairpin backbones were synthesized to contain N-terminal sequence (HCSSAV) and C-terminal sequence (IIRLEQ) of peptide 2 which is specifically bound to ED-B (Anigen, Korea). In other words, the sequence of bipodal-peptide binder in tryptophan zipper is […] (SEQ ID NO:21), and in GB1m3and HP7 are […] (SEQ ID NO:63) and […] (SEQ ID NO:64), respectively. Affinity of each peptide was measured using BIAcore X (Biacore AB, Uppsala, Sweden). […]
A leucine zipper motif as a structure stabilizing region instead of β-hairpin structure was synthesized to contain N-terminal sequence (HCSSAV) and C-terminal sequence (IIRLEQ) of peptide 2 which is specifically bound to ED-B, producing two peptides, […] […] Both peptides were formed as dimer, and their affinities were measured using BlAcore X (Biacore AB, Uppsala, Sweden). […]
Background: Surface plasmon resonance follows binding to a sensor surface in real time, without labels.

SMILES strings stand for the structures. Residues, ends and D or L forms follow the SMILES beside them.

T1 sequence (P02751 1271-1359 limits assumed): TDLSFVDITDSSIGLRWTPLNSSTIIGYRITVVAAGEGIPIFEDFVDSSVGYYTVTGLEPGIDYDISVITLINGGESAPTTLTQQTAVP

Usually Kd stands for the equilibrium constant for the complex coming apart. A lower Kd goes with tighter binding. Take `CC[C@H](C)[C@H](NC(=O)CNC(=O)[C@H](CCCCN)NC(=O)[C@H](Cc1c[nH]c2ccccc12)NC(=O)[C@@H](NC(=O)[C@H](Cc1c[nH]c2ccccc12)NC(=O)[C@H](CCCCN)NC(=O)CNC(=O)[C@H](CC(N)=O)NC(=O)[C@H](CCC(=O)O)NC(=O)[C@H](Cc1c[nH]c2ccccc12)NC(=O)[C@@H](NC(=O)[C@H](Cc1c[nH]c2ccccc12)NC(=O)[C@H](CO)NC(=O)CNC(=O)[C@@H](NC(=O)[C@H](C)NC(=O)[C@H](CO)NC(=O)[C@H](CO)NC(=O)[C@H](CS)NC(=O)[C@@H](N)Cc1c[nH]cn1)C(C)C)[C@@H](C)O)[C@@H](C)O)C(=O)N[C@H](C(=O)N[C@@H](CCCNC(=N)N)C(=O)N[C@@H](CC(C)C)C(=O)N[C@@H](CCC(=O)O)C(=O)N[C@@H](CCC(N)=O)C(=O)O)[C@@H](C)CC` [Peptide 2 (fibronectin ED-B)] (H-HCSSAVGSWTWENGKWTWKGIIRLEQ-OH; N-terminus and C-terminus assumed): the Kd was found to be 43 nM.
